According to ChEMBL document CHEMBL6134830, “Naturally inspired chimeric quinolone derivatives to reverse bacterial drug resistance” (Eur J Med Chem, 2025):
Values after ≈ are worked out from the molar mass of the structure shown.

How the values were obtained:
Staphylococcus aureus [1] = assay: Antimicrobial activity against Staphylococcus aureus ATCC 25923 assessed as inhibition of bacterial growth measured after 20 hrs by CLSI protocol based Muller Hinton broth assay; format: functional
Enterococcus gallinarum = assay: Antimicrobial activity against Enterococcus gallinarum ATCC 49573 assessed as inhibition of bacterial growth measured after 20 hrs by CLSI protocol based Muller Hinton broth assay; format: functional
Staphylococcus aureus [2] = assay: Antimicrobial activity against Methicillin-resistant Staphylococcus aureus ATCC 43300 assessed as inhibition of bacterial growth measured after 20 hrs by CLSI protocol based Muller Hinton broth assay; format: functional
Enterococcus faecalis = assay: Antimicrobial activity against Enterococcus faecalis ATCC 19433 assessed as inhibition of bacterial growth measured after 20 hrs by CLSI protocol based Muller Hinton broth assay; format: functional
Escherichia coli = assay: Antimicrobial activity against Escherichia coli ATCC 25922 assessed as inhibition of bacterial growth measured after 20 hrs by CLSI protocol based Muller Hinton broth assay; format: functional
Pseudomonas aeruginosa = assay: Antimicrobial activity against Pseudomonas aeruginosa ATCC 27853 assessed as inhibition of bacterial growth measured after 20 hrs by CLSI protocol based Muller Hinton broth assay; format: functional
Acinetobacter baumannii = assay: Antimicrobial activity against Acinetobacter baumannii ATCC 19606 assessed as inhibition of bacterial growth measured after 20 hrs by CLSI protocol based Muller Hinton broth assay; format: functional
[3] = Hemolytic activity in Sprague-Dawley rat Red blood cells at 100 ug/ml incubated for 1 hrs by absorbance based analysis; format: toxicity, cell-based; conditions: erythrocyte, dose 100 µg/ml
L929 = assay: Cytotoxicity against mouse L929 cells assessed as reduction in cell viability at 25 microg/mL incubated for 24 hrs by MTT assay; format: toxicity, cell-based; conditions: l929, 24 h, dose 25 µg/ml

CCCCCCCCCNC(=O)[C@H](CCCNC(=N)N)NC(=O)[C@H](CCCCN)NC(=O)[C@H](CCCCN)NC(=O)c1ccc(C(=O)N2CCN(c3cc4c(cc3F)c(=O)c(C(=O)O)cn4C3CC3)CC2)cc1
MIC (Staphylococcus aureus [1]): 3.12 µg/mL (≈ 3.07 µM)

CCCCCNC(=O)[C@H](CCCCN)NC(=O)c1ccc(C(=O)N2CCN(c3cc4c(cc3F)c(=O)c(C(=O)O)cn4C3CC3)CC2)cc1
MIC (Staphylococcus aureus [1]): 25 µg/mL (≈ 36.9 µM)

CCCCCCCCCCCCNC(=O)[C@H](CCCCN)NC(=O)c1ccc(C(=O)N2CCN(c3cc4c(cc3F)c(=O)c(C(=O)O)cn4C3CC3)CC2)cc1
MIC (Staphylococcus aureus [1]): 50 µg/mL (≈ 64.5 µM)

CCCCCCCCCCCCNC(=O)[C@H](CCCCN)NC(=O)[C@H](CCCCN)NC(=O)[C@H](CCCCN)NC(=O)CCC(=O)N1CCN(c2cc3c(cc2F)c(=O)c(C(=O)O)cn3C2CC2)CC1
MIC (Staphylococcus aureus [1]): > 50 µg/mL

CCCCCCCCNC(=O)[C@H](CCCCN)NC(=O)[C@H](CCCCN)NC(=O)[C@H](CCCCN)NC(=O)c1ccc(C(=O)N2CCN(c3cc4c(cc3F)c(=O)c(C(=O)O)cn4C3CC3)CC2)cc1
MIC (Staphylococcus aureus [1]): 3.12 µg/mL (≈ 3.2 µM)

CCCCCCCCCNC(=O)[C@H](CCCNC(=N)N)NC(=O)[C@H](CCCNC(=N)N)NC(=O)[C@H](CCCNC(=N)N)NC(=O)c1ccc(C(=O)N2CCN(c3cc4c(cc3F)c(=O)c(C(=O)O)cn4C3CC3)CC2)cc1
MIC (Staphylococcus aureus [1]): > 50 µg/mL

CCCCCCCCCCCC(=O)N[C@@H](Cc1c[nH]cn1)C(=O)N1CCN(c2cc3c(cc2F)c(=O)c(C(=O)O)cn3C2CC2)CC1
MIC (Staphylococcus aureus [1]): 6.25 µg/mL (≈ 9.6 µM)

NCCCC[C@H](NC(=O)c1ccc(C(=O)N2CCN(c3cc4c(cc3F)c(=O)c(C(=O)O)cn4C3CC3)CC2)cc1)C(=O)NCc1ccc(-c2ccccc2)cc1
MIC (Staphylococcus aureus [1]): 50 µg/mL (≈ 64.7 µM)

CCCCCCCCCCCCCCNC(=O)[C@H](CCCCN)NC(=O)c1ccc(C(=O)N2CCN(c3cc4c(cc3F)c(=O)c(C(=O)O)cn4C3CC3)CC2)cc1
MIC (Staphylococcus aureus [1]): 25 µg/mL (≈ 31.1 µM)

CCCCCCCCCNC(=O)[C@H](CCCCN)NC(=O)c1ccc(C(=O)N2CCN(c3cc4c(cc3F)c(=O)c(C(=O)O)cn4C3CC3)CC2)cc1
MIC (Staphylococcus aureus [1]): 6.25 µg/mL (≈ 8.53 µM)

N=C(N)NCCC[C@H](N)C(=O)N1CCN(c2cc3c(cc2F)c(=O)c(C(=O)O)cn3C2CC2)CC1
MIC (Staphylococcus aureus [1]): ≥ 12.5 µg/mL

CCCCCCCCCC(=O)N[C@@H](CCCCN)C(=O)N1CCN(c2cc3c(cc2F)c(=O)c(C(=O)O)cn3C2CC2)CC1
MIC (Staphylococcus aureus [1]): 6.25 µg/mL (≈ 10.2 µM)

NCCCC[C@H](NC(=O)c1ccc(C(=O)N2CCN(c3cc4c(cc3F)c(=O)c(C(=O)O)cn4C3CC3)CC2)cc1)C(=O)NCc1ccccc1
MIC (Staphylococcus aureus [1]): 25 µg/mL (≈ 35.9 µM)

CCCCCCCCCCNC(=O)[C@H](CCCCN)NC(=O)[C@H](CCCCN)NC(=O)[C@H](CCCCN)NC(=O)c1ccc(C(=O)N2CCN(c3cc4c(cc3F)c(=O)c(C(=O)O)cn4C3CC3)CC2)cc1
MIC (Staphylococcus aureus [1]): 3.12 µg/mL (≈ 3.11 µM)

CCCCCCNC(=O)[C@H](CCCCN)NC(=O)c1ccc(C(=O)N2CCN(c3cc4c(cc3F)c(=O)c(C(=O)O)cn4C3CC3)CC2)cc1
MIC (Staphylococcus aureus [1]): 25 µg/mL (≈ 36.2 µM)

NCCCC[C@H](N)C(=O)N1CCN(c2cc3c(cc2F)c(=O)c(C(=O)O)cn3C2CC2)CC1
MIC (Staphylococcus aureus [1]): ≥ 12.5 µg/mL

CCCCCCCCCNC(=O)[C@H](Cc1c[nH]cn1)NC(=O)[C@H](CCCCN)NC(=O)[C@H](CCCCN)NC(=O)c1ccc(C(=O)N2CCN(c3cc4c(cc3F)c(=O)c(C(=O)O)cn4C3CC3)CC2)cc1
MIC (Staphylococcus aureus [1]): 6.25 µg/mL (≈ 6.26 µM)

CCCCCCCCCCCCCCCCNC(=O)[C@H](CCCCN)NC(=O)[C@H](CCCCN)NC(=O)[C@H](CCCCN)NC(=O)c1ccc(C(=O)N2CCN(c3cc4c(cc3F)c(=O)c(C(=O)O)cn4C3CC3)CC2)cc1
MIC (Staphylococcus aureus [1]): > 50 µg/mL

CCCCCCCCCNC(=O)[C@H](CCCCN)NC(=O)[C@H](CCCCN)NC(=O)[C@H](CCCCN)NC(=O)c1ccc(C(=O)N2CCN(c3cc4c(cc3F)c(=O)c(C(=O)O)cn4C3CC3)CC2)cc1
MIC (Staphylococcus aureus [1]): 3.12 µg/mL (≈ 3.16 µM)

CCCCCCCCCCCCNC(=O)[C@H](CCCCN)NC(=O)[C@H](CCCCN)NC(=O)[C@H](CCCCN)NC(=O)CCCCCCCCCCCNC(=O)CCC(=O)N1CCN(c2cc3c(cc2F)c(=O)c(C(=O)O)cn3C2CC2)CC1
MIC (Staphylococcus aureus [1]): 3.12 µg/mL (≈ 2.65 µM)
MIC (Enterococcus gallinarum): 6.25 µg/mL (≈ 5.29 µM)
MIC (Staphylococcus aureus [2]): 6.25 µg/mL (≈ 5.29 µM)
MIC (Enterococcus faecalis): 12.5 µg/mL (≈ 10.6 µM)
MIC (Escherichia coli): 12.5 µg/mL (≈ 10.6 µM)
MIC (Pseudomonas aeruginosa): 6.25 µg/mL (≈ 5.29 µM)
MIC (Acinetobacter baumannii): 6.25 µg/mL (≈ 5.29 µM)
Activity [3]: Toxic
Activity (L929): Toxic

NCCCC[C@H](NC(=O)c1ccc(C(=O)N2CCN(c3cc4c(cc3F)c(=O)c(C(=O)O)cn4C3CC3)CC2)cc1)C(=O)NCc1c(Cl)cccc1Cl
MIC (Staphylococcus aureus [1]): 12.5 µg/mL (≈ 16.3 µM)
